Here are results for 1 substance from patent US8729034B2, “Pharmaceutical composition having virucidal and spermicidal activity” (priority 2007, dated 2014).

For one test, the system named is NL4.3 virus. Kind of test: Anti-HIV activity in P4 (Hela-CD4-LTR-β Gal) cells (p24 ELISA, X-gal staining). It is filed as cell-based, HIV-1. The note with it: for Percentage inhibition of hiv growth in p4 cell line, Without Pretreatment: untreated virus; for Inhibition of viral transmission, Ac-B-treated virus: subsequent culture with or without Ac-B. The method, then: P4 (Hela-CD4-LTR-β Gal) cells were infected with 0.05 MOI of NL4.3 virus pretreated without or with Ac-B at varying concentrations (1 hour at 37 degree C.) followed by incubation for 48 hours in the presence or absence of Ac-B at a concentration of 0.5 to 2.5 microgram per ml. Virus production was analyzed by ELISA of p24 antigen in the culture supernatant. Viral transmission in the transfected cells was evaluated by X-gal staining, in which an antiretroviral therapeutic drug, Azidothymidine (AZT) was used as positive control.

The test system of a further test is human spermatozoa. Briefly: Membrane lipid peroxidation, MDA by thiobarbituric acid (TBA) test. It is filed as cell-based. The following applies: Ac-B 10-120 microgram per ml, 20 seconds. How it is done: Membrane lipid peroxidation was estimated by the end point generation of malondialdehyde (MDA) determined by the thiobarbituric acid (TBA) test.
Suspension of human spermatozoa was prepared using the swim up technique, as described above. A series of dilutions (10, 20, 40, 60, 80, 100 and 120 microgram per ml) of Ac-B was prepared in BWW medium. From each test (Ac-B) solution, 800 microliters was taken out and mixed with 200 microliters of sperm suspension with a gentle vortex for 10 seconds. After 20 seconds of mixing, the treated spermatozoa were separated from the suspending medium by centrifugation. The pellet of washed spermatozoa was resuspended in physiological saline. A control set of untreated sperm was treated similarly. Membrane lipid peroxidation was estimated by the end point generation of malondialdehyde (MDA), determined by the thiobarbituric acid (TBA) test.
Briefly, diluted spermatozoa with or without treatment (250×10^6 cells in 1 ml) were mixed with 1 ml of cold 20% (wt/vol) trichloroacetic acid (TCA) to precipitate protein. The precipitate was pelleted by centrifugation (2000 rpm for 10 minutes), and 1 ml of the supernatant was incubated with 1 ml of 0.67% (wt/vol) TBA in a boiling water bath at 100 degree C. for 30 minutes. After cooling, the absorbance was determined by a spectrophotometer (UNICAM PU 8610 Kinetics spectrophotometer; Philips, Holland) at 535 nm.

“Also recorded” adds a separate entry of the source.

As for Acaciaside-B [Ac-B], the “Percentage inhibition of hiv growth in p4 cell line, Without Pretreatment” value in the test with NL4.3 virus (Ac-B 0.5 microgram per ml, 48 hours) is 0%; with NL4.3 virus (Ac-B 1 microgram per ml), 0%; in the test with NL4.3 virus (Ac-B 2 microgram per ml), 0%; in the test with NL4.3 virus (Ac-B 2.5 microgram per ml) it was 0%. In addition, the “Percentage inhibition of hiv growth in p4 cell line, Pretreatment with Ac-B” value in the test on NL4.3 virus (Ac-B 0.5 microgram per ml, virus pretreated 1 hour at 37 degree C, 48 hours) turned out to be 76.53%; with NL4.3 virus (Ac-B 1 microgram per ml, virus pretreated), 95.86%; in the test with NL4.3 virus (Ac-B 2 microgram per ml, virus pretreated), 96%; in the test on NL4.3 virus (Ac-B 2.5 microgram per ml, virus pretreated) it was 95.53%. Moreover, the “Anti-HIV activity by X-gal staining, compared with AZT” value in the test with NL4.3 virus (Ac-B 1.0 microgram per ml (0.005 micromoles) vs AZT at 2 micromole) was “comparable to or greater than that induced by AZT”. In addition, the “Inhibition of viral transmission, Ac-B-treated virus” value in the test with NL4.3 virus (Ac-B greater than or equal to 1.5 microgram per ml) and in the test with NL4.3 virus (Ac-B ≧1.0 mcg/ml) was above 95% each time. Moreover, the “Inhibition of viral transmission, untreated virus” value with NL4.3 virus (cells infected with untreated virus and cultured in the presence of Ac-B) is “no inhibition of viral transmission”. Also, the “Production of malondialdehyde (MDA)” value with human spermatozoa is recorded as “increase in the production of MDA; also recorded: dose-dependent increased generation of malondialdehyde (MDA)”.
